From patent US20260217693A1, “SRPK1 INHIBITORS AND METHODS OF USE” (ALLIANTHERA (SUZHOU) BIOPHARMACEUTICAL CO., LTD., priority 2023, published 2026)

Each compound was assayed against SRPK1 (Homo sapiens, UniProt Q96SB4) (assay: SRPK1 assay, Method 1 (ADP-Glo luminescence)). Conditions: Method 1 (no asterisk): substrate Human SRSF1/SF2, 25° C. for 90 min, test compounds 30 μM top, 3-fold, duplicate.
Type: biochemical
Description: The SPRK1 assay was performed as follows:
Method 1: The assay buffer was prepared. The reference compound was diluted to 10 mM. The test compounds were prepared at a concentration of 30 mM. Fifteen nL of compounds/DMSO were transferred to a multi-well plate. Then, 7.5 ul enzyme SRPK1 was added to each well, the plate was spun down at 1000 rpm and centrifuged for 30 sec. Then, 7.5 ul substrate Human SRSF1/SF2 was added to each well, the plate spun down at 1000 rpm and centrifuged for 30 sec. The plate was then incubated at 25° C. for 90 min. After 90 min, 5 μl of ADP-Glo™ Reagent was added to each well and the plate incubated at room temperature for 60 minutes. Then, 10 μl of Kinase Detection Reagent was added to each well and the plate incubate at room temperature for 60 minutes. The luminescence of each well was recorded on Envision. The test compounds were at 30 μM top, 3-fold, in duplicate, and the final concentration of DMSO was 0.1%.
All assays were performed using Method 1, except where indicated with an asterisk (*) in the below table, indicating Method 2 was used.

Sequence of SRPK1 (Q96SB4 whole entry): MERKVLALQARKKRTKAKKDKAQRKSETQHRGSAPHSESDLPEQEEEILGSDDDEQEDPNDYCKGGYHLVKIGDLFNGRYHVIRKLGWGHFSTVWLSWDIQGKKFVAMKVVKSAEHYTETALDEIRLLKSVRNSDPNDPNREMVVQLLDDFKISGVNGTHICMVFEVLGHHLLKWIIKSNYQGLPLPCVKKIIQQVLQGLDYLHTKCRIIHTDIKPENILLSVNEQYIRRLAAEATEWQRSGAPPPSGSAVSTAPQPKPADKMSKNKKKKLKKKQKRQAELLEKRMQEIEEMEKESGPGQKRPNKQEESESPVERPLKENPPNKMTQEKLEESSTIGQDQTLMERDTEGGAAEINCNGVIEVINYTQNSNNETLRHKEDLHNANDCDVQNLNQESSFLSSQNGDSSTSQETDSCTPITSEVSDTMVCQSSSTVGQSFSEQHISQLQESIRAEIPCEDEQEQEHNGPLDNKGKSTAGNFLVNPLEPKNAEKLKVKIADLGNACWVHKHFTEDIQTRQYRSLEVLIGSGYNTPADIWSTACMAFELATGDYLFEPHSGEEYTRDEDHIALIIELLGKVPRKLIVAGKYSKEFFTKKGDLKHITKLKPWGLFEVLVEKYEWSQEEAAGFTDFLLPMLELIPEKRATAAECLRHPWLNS

**Q.** Which IC50 does the source give for `C[C@@H]1C[C@@H](O)CCN1c1ncc(C2CC2)cc1NC(=O)c1ccc(-c2cc(N)nc(N)c2)o1` [Compound 134] here?
**A.** > 30000 nM

**Q.** With `CC1C[C@@H](O)CCN1c1ncc(C(F)(F)F)cc1NC(=O)c1ccc(-c2ccncc2)o1` (stereo in doubt) [Compound 079, N-(2-((2R,4S)-4-hydroxy-2-methylpiperidin-1-yl)-5-(trifluoromethyl)pyridin-3-yl)-5-(pyridin-4-yl) furan-2-carboxamide] as the compound, how does the IC50 read?
**A.** 102 nM

**Q.** `O=C(Nc1cc(C(F)(F)F)cnc1N1CCC(O)CC1)c1cccc(-c2cn[nH]c2)n1` [Compound 100] was tested. Which IC50 did it give?
**A.** 59.7 nM

**Q.** How did the IC50 turn out when `O=C(Nc1cc(C(F)(F)F)cnc1N1CCC2(CC1)CC(O)C2)c1ccc(C2CCOCC2)o1` [Compound 060] was run?
**A.** 51.9 nM

**Q.** How did the IC50 turn out when `O=C(Nc1cc(C(F)(F)F)cnc1N1CCC(O)CC1)c1ccc(-c2cn[nH]c2)cc1` [Compound 129] was run?
**A.** > 30000 nM

**Q.** With `CC(=O)OC1CC2(CCN(c3ncc(C(F)(F)F)cc3NC(=O)c3ccc(C4CCOCC4)o3)CC2)C1` [Compound 059] as the compound, how does the IC50 read?
**A.** 78.7 nM

**Q.** How did the IC50 turn out when `C[C@H]1C[C@H](O)CCN1c1ncc(C(F)(F)F)cc1NC(=O)c1ccc(C2CCOCC2)o1` [Compound 076] was run?
**A.** 14.2 nM

**Q.** Which IC50 does the source give for `Nc1cc(-c2ccc(C(=O)Nc3cc(C4CC4)cnc3N3CCc4[nH]ncc4C3)o2)ccn1` [Compound 122] here?
**A.** > 30000 nM

**Q.** How did the IC50 turn out when `O=C(Nc1cc(C2CC2)cnc1N1CCc2[nH]ncc2C1)c1ccc(Br)o1` [Compound 120] was run?
**A.** > 30000 nM

**Q.** How did the IC50 turn out when `Cn1cc(-c2ccc(C(=O)Nc3cc(C(F)(F)F)cnc3N3CCC(O)CC3)o2)cn1` [Compound 054] was run?
**A.** 18.5 nM

**Q.** For `O=C(Nc1cc(C(F)(F)F)cnc1N1CCC(O)CC1)c1ccc(C(F)(F)F)cn1` [Compound 077], which IC50 is on record?
**A.** > 30000 nM

**Q.** For `Nc1cc(-c2ccc(C(=O)Nc3cc(C(F)(F)F)cnc3N3CCc4[nH]ncc4C3)o2)cc(N)n1` [Compound 130], which IC50 is on record?
**A.** > 30000 nM

**Q.** For `COC(=O)C1(C)CCN(c2ncc(C(F)(F)F)cc2NC(=O)c2ccc(C3CCOCC3)o2)CC1` [Compound 032, methyl 4-methyl-1-[3-[(5-tetrahydropyran-4-ylfuran-2-carbonyl)amino]-5-(trifluoromethyl)-2-pyridyl]piperidine-4-carboxylate], which IC50 is on record?
**A.** 114 nM

**Q.** `O=C(Nc1cc(C(F)(F)F)cnc1N1CCCC(O)C1)c1ccc(C2CCOCC2)o1` (stereo not drawn) [Compound 072] was tested. Which IC50 did it give?
**A.** 754 nM

**Q.** With `O=C(Nc1cc(C(F)(F)F)cnc1N1CCC(CO)C1)c1ccc(C2CCOCC2)o1` (stereo not drawn) [Compound 038] as the compound, how does the IC50 read?
**A.** 24500 nM

**Q.** For `O=C(Nc1cc(C(F)(F)F)cnc1N1CCC(O)(C(F)(F)F)CC1)c1ccc(-c2ccncc2)o1` [Compound 064], which IC50 is on record?
**A.** 249 nM

**Q.** With `O=C(Nc1cc(C(F)(F)F)cnc1N1CCC(O)CC1)c1cc(-c2cn[nH]c2)ccn1` [Compound 094, N-[2-(4-hydroxy-1-piperidyl)-5-(trifluoromethyl)-3-pyridyl]-4-(1H-pyrazol-4-yl)pyridine-2-carboxamide] as the compound, how does the IC50 read?
**A.** > 30000 nM

**Q.** With `O=C(Nc1cc(C(F)(F)F)cnc1N1CCC(O)CC1)c1ccc(-c2ccnnc2)o1` [Compound 050] as the compound, how does the IC50 read?
**A.** 435 nM

**Q.** How did the IC50 turn out when `O=C(Nc1cc(C(F)(F)F)cnc1N1CCC(CO)CC1)c1ccc(C2CCOCC2)o1` [Compound 083] was run?
**A.** 39.8 nM

**Q.** Which IC50 does the source give for `O=C(Nc1cc(C(F)(F)F)cnc1N1CCC(O)CC1)c1cccc(Cl)n1` [Compound 087] here?
**A.** 249 nM

**Q.** With `NC(=O)C1(O)CCN(c2ncc(C(F)(F)F)cc2NC(=O)c2ccc(C3CCOCC3)o2)CC1` [Compound 096, 4-hydroxy-1-[3-[(5-tetrahydropyran-4-ylfuran-2-carbonyl)amino]-5-(trifluoromethyl)-2-pyridyl]piperidine-4-carboxamide] as the compound, how does the IC50 read?
**A.** 18.3 nM

**Q.** `CC1(O)CCN(c2ncc(C3CC3)cc2NC(=O)c2ccc(-c3ccncc3)o2)CC1` [Compound 136, N-(5-cyclopropyl-2-(4-hydroxy-4-methylpiperidin-1-yl)pyridin-3-yl)-5-(pyridin-4-yl) furan-2-carboxamide] was tested. Which IC50 did it give?
**A.** 36 nM

**Q.** Which IC50 does the source give for `O=C(Nc1cc(C(F)(F)F)cnc1N1CCCC(O)CC1)c1ccc(C2CCOCC2)o1` (stereo not drawn) [Compound 031] here?
**A.** 360 nM

**Q.** For `O=C(Nc1cc(C(F)(F)F)cnc1-c1cccnc1)c1ccc(C2CCOCC2)o1` [Compound 009], which IC50 is on record?
**A.** > 30000 nM
